What was measured:
[1] = system: A549-ACE2; test: drug-induced phospholipidosis relative to tamoxifen; higher = more phospholipidosis; conditions: 24 h
[2] = system: Caco-2; test: cell viability relative to DMSO; higher = less toxic; conditions: 72 h
[3] = system: Vero E6; test: as above; conditions: 72 h
[4] = system: Calu-3; test: as above; conditions: 72 h
[5] = system: U2OS; test: as above; conditions: 72 h
[6] = system: HepG2; test: as above; conditions: 72 h
[7] = system: Caco-2; test: drug sensitivity score (DSS) for viability; higher = more toxic; extreme values may be limits of the assay; conditions: 72 h
[8] = system: Vero E6; test: as above; conditions: 72 h
[9] = system: Calu-3; test: as above; conditions: 72 h
[10] = system: U2OS; test: as above; conditions: 72 h
[11] = system: HepG2; test: as above; conditions: 72 h
[12] = system: A549-ACE2 infected with SARS-CoV-2; test: cell count relative to DMSO; higher = less toxic; conditions: 24 h
[13] = system: A549-ACE2 infected with SARS-CoV-2; test: SARS-CoV-2 infection rate relative to DMSO; higher = more infection; conditions: 24 h
[14] = system: HepG2; test: relative viability EC50 (midpoint between 100% and the lowest measured viability); higher = less toxic; conditions: 72 h
[15] = system: A549-ACE2 infected with SARS-CoV-2; test: morphology score (similarity to uninfected cells); higher = more like uninfected cells; conditions: 24 h
[16] = system: Caco-2; test: relative viability EC50 (midpoint between 100% and the lowest measured viability); higher = less toxic; conditions: 72 h
[17] = system: Vero E6; test: as above; conditions: 72 h
[18] = system: Calu-3; test: as above; conditions: 72 h
[19] = system: U2OS; test: as above; conditions: 72 h

CC(C)C[C@H](NC(=O)CNC(=O)c1cc(Cl)ccc1Cl)B1OC(=O)C(CC(=O)O)(CC(=O)O)O1 [MLN9708]
Conditions | SARS-CoV-2 infection rate [%] | cell count [%] | cell viability [%] | drug-induced phospholipidosis [%] | morphology score
[1], 0.3 µM | – | – | – | 4.58 | –
[1], 0.833333 µM | – | – | – | -2.83 | –
[2], 1 nM | – | – | 99.6 | – | –
[2], 10 nM | – | – | 94.6 | – | –
[2], 100 nM | – | – | 11.4 | – | –
[2], 1000 nM | – | – | 5.1 | – | –
[2], 10000 nM | – | – | 5 | – | –
[3], 1 nM | – | – | 97 | – | –
[3], 10 nM | – | – | 99.5 | – | –
[3], 100 nM | – | – | 44.1 | – | –
[3], 1000 nM | – | – | 10.5 | – | –
[3], 10000 nM | – | – | 4.8 | – | –
[4], 1 nM | – | – | 95.1 | – | –
[4], 10 nM | – | – | 95.1 | – | –
[4], 100 nM | – | – | 19.6 | – | –
[4], 1000 nM | – | – | 6.6 | – | –
[4], 10000 nM | – | – | 5.2 | – | –
[5], 1 nM | – | – | 101 | – | –
[5], 10 nM | – | – | 95.8 | – | –
[5], 100 nM | – | – | 43.2 | – | –
[5], 1000 nM | – | – | 0.5 | – | –
[5], 10000 nM | – | – | 0 | – | –
[6], 1 nM | – | – | 89.6 | – | –
[6], 10 nM | – | – | 104 | – | –
[6], 100 nM | – | – | 65 | – | –
[6], 1000 nM | – | – | 4.3 | – | –
[6], 10000 nM | – | – | 0.5 | – | –
[12], 0.1 µM | – | 88 | – | – | –
[12], 0.3 µM | – | 78 | – | – | –
[12], 1 µM | – | 65 | – | – | –
[12], 3 µM | – | 57 | – | – | –
[13], 0.1 µM | 88 | – | – | – | –
[13], 0.3 µM | 83 | – | – | – | –
[13], 1 µM | 48 | – | – | – | –
[13], 3 µM | 33 | – | – | – | –
[15], 0.1 µM | – | – | – | – | 0.35
[15], 0.3 µM | – | – | – | – | 0.28
[15], 1 µM | – | – | – | – | 0.27
[15], 3 µM | – | – | – | – | 0.28

Conditions | drug sensitivity score | relative viability EC50 [µM]
[7] | 28.8 | –
[8] | 23.8 | –
[9] | 27.3 | –
[10] | 24.7 | –
[11] | 22.1 | –
[14] | – | 0.139

CC(C)C[C@H](NC(=O)CNC(=O)c1cc(Cl)ccc1Cl)B1OC(=O)C(CC(=O)O)(CC(=O)O)O1 [ixazomib-citrate]
Conditions | SARS-CoV-2 infection rate [%] | cell count [%] | cell viability [%] | drug-induced phospholipidosis [%] | morphology score
[1], 0.3 µM | – | – | – | 5.51 | –
[2], 1 nM | – | – | 105 | – | –
[2], 10 nM | – | – | 103 | – | –
[2], 100 nM | – | – | 22.9 | – | –
[2], 1000 nM | – | – | 6.1 | – | –
[2], 10000 nM | – | – | 7 | – | –
[3], 1 nM | – | – | 106 | – | –
[3], 10 nM | – | – | 102 | – | –
[3], 100 nM | – | – | 72.5 | – | –
[3], 1000 nM | – | – | 11.5 | – | –
[3], 10000 nM | – | – | 4.8 | – | –
[4], 1 nM | – | – | 107 | – | –
[4], 10 nM | – | – | 103 | – | –
[4], 100 nM | – | – | 27.9 | – | –
[4], 1000 nM | – | – | 5.6 | – | –
[4], 10000 nM | – | – | 4.8 | – | –
[5], 1 nM | – | – | 107 | – | –
[5], 10 nM | – | – | 106 | – | –
[5], 100 nM | – | – | 69.6 | – | –
[5], 1000 nM | – | – | 0.4 | – | –
[5], 10000 nM | – | – | -0.3 | – | –
[6], 1 nM | – | – | 106 | – | –
[6], 10 nM | – | – | 107 | – | –
[6], 100 nM | – | – | 98 | – | –
[6], 1000 nM | – | – | 6.3 | – | –
[6], 10000 nM | – | – | 0.3 | – | –
[12], 0.1 µM | – | 97 | – | – | –
[12], 0.3 µM | – | 74 | – | – | –
[12], 1 µM | – | 69 | – | – | –
[12], 3 µM | – | 60 | – | – | –
[13], 0.1 µM | 81 | – | – | – | –
[13], 0.3 µM | 85 | – | – | – | –
[13], 1 µM | 47 | – | – | – | –
[13], 3 µM | 43 | – | – | – | –
[15], 0.1 µM | – | – | – | – | 0.41
[15], 0.3 µM | – | – | – | – | 0.25
[15], 1 µM | – | – | – | – | 0.3
[15], 3 µM | – | – | – | – | 0.28

Conditions | drug sensitivity score | relative viability EC50 [µM]
[7] | 25.9 | –
[8] | 19.6 | –
[9] | 25.5 | –
[10] | 22.4 | –
[11] | 17.2 | –
[14] | – | 0.358

CO[C@H](C(=O)[C@@H](O)[C@@H](C)O)[C@@H]1Cc2cc3cc(O[C@H]4C[C@@H](O[C@H]5C[C@@H](O)[C@H](O)[C@@H](C)O5)[C@@H](O)[C@@H](C)O4)c(C)c(O)c3c(O)c2C(=O)[C@H]1O[C@H]1C[C@@H](O[C@H]2C[C@@H](O[C@H]3C[C@](C)(O)[C@H](O)[C@@H](C)O3)[C@H](O)[C@@H](C)O2)[C@H](O)[C@@H](C)O1 [plicamycin]
cell viability [%]
Conditions | [2] | [3] | [4] | [5] | [6]
1 nM | 101 | 92.6 | 107 | 96.4 | 107
10 nM | 95 | 105 | 88.4 | 100 | 99.9
100 nM | 42.4 | 95.6 | 48.5 | 5.9 | 5.2
1000 nM | 58.1 | 73.5 | 24 | 1 | 4.4
10000 nM | 65.5 | 4.9 | 28.1 | 1.5 | 6.1

Conditions | drug sensitivity score | relative viability EC50 [µM]
[7] | 18.9 | –
[8] | 9.2 | –
[9] | 20.8 | –
[10] | 29.5 | –
[11] | 29.1 | –
[14] | – | 0.0321
[16] | – | 0.0245
[17] | – | 1.46
[18] | – | 0.0509
[19] | – | 0.036

N[C@@H](Cc1ccc(O)cc1)C(=O)O [plovamer-acetate]
cell viability [%]
Conditions | [2] | [3] | [4] | [5] | [6]
1 nM | 119 | 106 | 97.9 | 99.1 | 87.2
10 nM | 83.9 | 102 | 98.5 | 94.8 | 94.4
100 nM | 84.4 | 96.3 | 105 | 102 | 93
1000 nM | 90.7 | 104 | 104 | 93.3 | 90.1
10000 nM | 92.1 | 95.5 | 102 | 97.6 | 80.1

Conditions | drug sensitivity score | relative viability EC50 [µM]
[7] | 4.2 | –
[8] | 0 | –
[9] | 0 | –
[10] | 0 | –
[11] | 0 | –
[14] | – | > 10
[16] | – | > 10
[17] | – | > 10
[18] | – | > 10
[19] | – | > 10

COCCCN1CCC(NC(=O)c2cc(Cl)c(N)c3c2OCC3)CC1 [prucalopride]
cell viability [%]
Conditions | [2] | [3] | [4] | [5] | [6]
1 nM | 102 | 106 | 104 | 96.9 | 96.7
10 nM | 82.8 | 103 | 97 | 97.7 | 102
100 nM | 102 | 105 | 90.1 | 97.7 | 96.5
1000 nM | 102 | 101 | 97.6 | 97.9 | 91
10000 nM | 101 | 95 | 94.9 | 102 | 96.5

Conditions | drug sensitivity score | relative viability EC50 [µM]
[7] | 0 | –
[8] | 0 | –
[9] | 0 | –
[10] | 0 | –
[11] | 0 | –
[14] | – | > 10
[16] | – | > 10
[17] | – | > 10
[18] | – | > 10
[19] | – | > 10

CCN1CCC[C@H]1CNC(=O)c1c(O)c(Cl)cc(Cl)c1OC [raclopride]
cell viability [%]
Conditions | [2] | [3] | [4] | [5] | [6]
1 nM | 91.2 | 101 | 97.9 | 101 | 99.6
10 nM | 88.3 | 100 | 94 | 95.2 | 104
100 nM | 93.5 | 94.7 | 92.4 | 96.6 | 93.7
1000 nM | 84 | 93 | 96.7 | 95 | 101
10000 nM | 96.6 | 100 | 97.4 | 99.9 | 93.1

Conditions | drug sensitivity score | relative viability EC50 [µM]
[7] | 0 | –
[8] | 0 | –
[9] | 0 | –
[10] | 0 | –
[11] | 0 | –
[14] | – | > 10
[16] | – | > 10
[17] | – | > 10
[18] | – | > 10
[19] | – | > 10

— the supplement of paper PMC13380429
